# Laboratory results: patent publication EP1211505A1, “METHOD FOR MEASURING SUBSTANCE AND M[…] TO BE USED IN THE METHOD” (Asahi Kasei Kabushiki Kaisha, priority 1999, dated 2001)
# Where two headings read alike, the source gives them in different places.
# Key:
# [1] = Solubility of BCIP / BCI2; type: physicochemical; settings: buffer 1: 1.01 M 2-ethylaminoethanol-HCl/0.505 mM MgCl2 (pH 9.87)
# Procedure: The solubility of BCIP in the buffer 1 is about 70 mM. In order to obtain the optimum concentration of BCIP, first an ALP measurement reagent was prepared by dissolving BCIP in the buffer 1 to give a final concentration of 70 mM, and then the prepared reagent was diluted with the buffer 1 step by step to prepare ALP measurement reagents having BCIP final concentrations of 70 mM, 35 mM, 15 mM, 10 mM, 6.25 mM, 5 mM, 2.5 mM and 1.25 mm, respectively.
# [2] = in the form of a sodium salt, cited from earlier work
smiles,measurement,setting,value
"O=P(O)(O)Oc1c[nH]c2ccc(Br)c(Cl)c12 [BCIP, 5-bromo-4-chloro-3-indoxyl phosphate]",solubility of BCIP in the buffer 1,[1],about 70 mM
same,solubility of BCIP in pure water,[2]; same value expressed in mM,54 mM
same,solubility of BCIP in pure water,[2],20 mg/mL
